# Experimental data reported in US8278304B2, “Substituted 4-hydroxypyrimidine-5-carboxamides” (Merck Sharp & Dohme Corp., priority 2008, dated 2012).
# Counter-ions that a name gives are not always drawn.
# Biological target: T1, PHD2 (Homo sapiens, UniProt Q9GZT9)
# T1 construct: FLAG-tagged full length PHD2 expressed in and purified from baculovirus-infected Sf9 cells; FLAG; made in house; host or cells: baculovirus-infected Sf9 cells
# Experiment: PHD2 / HIF-1α peptide hydroxylation assay, time resolved fluorescence (VHL complex detection)
# Format: biochemical
# Conditions: FLAG-tagged full length PHD2; 0.2 μM 2-oxoglutarate, 0.5 μM HIF-1α peptide; read-out: PHD2 Activity (PHD2 binding activity expressed as IC50 (nM))
# Protocol: To each well of a 96-well plate was added 1 μL of test compound in DMSO and 20 μl of assay buffer (50 mM Tris pH 7.4/0.01% Tween-20/0.1 mg/ml bovine serum albumin/10 μM ferrous sulfate/1 mM sodium ascorbate/20 μg/ml catalase) containing 0.15 μg/ml FLAG-tagged full length PHD2 expressed in and purified from baculovirus-infected Sf9 cells. After a 30 min preincubation at room temperature, the enzymatic reactions were initiated by the addition of 4 μL of substrates (final concentrations of 0.2 μM 2-oxoglutarate and 0.5 μM HIF-1α peptide biotinyl-[…]).
# T1 sequence (Q9GZT9 whole entry): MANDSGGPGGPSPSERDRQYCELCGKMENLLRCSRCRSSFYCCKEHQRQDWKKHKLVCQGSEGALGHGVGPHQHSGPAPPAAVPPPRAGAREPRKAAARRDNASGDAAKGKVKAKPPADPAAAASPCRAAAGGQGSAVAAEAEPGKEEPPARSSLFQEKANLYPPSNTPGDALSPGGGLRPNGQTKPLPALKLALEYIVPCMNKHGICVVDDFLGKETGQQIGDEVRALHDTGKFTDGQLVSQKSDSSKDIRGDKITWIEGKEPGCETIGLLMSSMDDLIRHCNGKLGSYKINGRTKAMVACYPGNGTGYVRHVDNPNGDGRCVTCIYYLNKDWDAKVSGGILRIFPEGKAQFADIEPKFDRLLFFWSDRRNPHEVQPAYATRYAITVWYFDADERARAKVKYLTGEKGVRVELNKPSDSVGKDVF
row,SMILES,IC50 [nM]
1,"N#Cc1ccc(CNC(=O)c2cnc(-n3cccn3)nc2O)cn1 [Example 110, N-[(6-cyanopyridin-3-yl)methyl]-4-hydroxy-2-(1H-pyrazol-1-yl)pyrimidine-5-carboxamide]",10 to 100
2,"O=C(NCc1ccc(Cl)nc1)c1cnc(-n2cccn2)nc1O [Example 59, N-[(6-chloropyridin-3-yl)methyl]-4-hydroxy-2-(1H-pyrazol-1-yl)pyrimidine-5-carboxamide]",10 to 100
3,"CC[C@H](NC(=O)c1cnc(-n2cccn2)nc1O)c1ccccc1 [Example 48, 4-Hydroxy-N-[(1S)-1-phenylpropyl]-2-(1H-pyrazol-1-yl)pyrimidine-5-carboxamide]",≤ 10
4,"Cc1cnc(CNC(=O)c2cnc(-n3cccn3)nc2O)cn1 [Example 66, 4-Hydroxy-N-[(5-methylpyrazin-2-yl)methyl]-2-(1H-pyrazol-1-yl)pyrimidine-5-carboxamide]",100 to 1000
5,"O=C(NCc1ccc(C(F)(F)F)cc1F)c1cnc(-n2cccn2)nc1O [Example 68, N-[2-fluoro-4-(trifluoromethyl)benzyl]-4-hydroxy-2-(1H-pyrazol-1-yl)pyrimidine-5-carboxamide]",10 to 100
6,"Cc1nc(-c2ncc(C(=O)NCCc3ccc(F)cc3)c(O)n2)cs1 [Example 32, N-[2-(4-fluorophenyl)ethyl]-4-hydroxy-2-(2-methyl-1,3-thiazol-4-yl)pyrimidine-5-carboxamide]",100 to 1000
7,"C[C@H](NC(=O)c1cnc(-n2cccn2)nc1O)c1ccc2ccccc2c1 [Example 121, 4-hydroxy-N-[(1S)-1-(naphthalen-2-yl)ethyl]-2-(1H-pyrazol-1-yl)pyrimidine-5-carboxamide]",≤ 10
8,"CC[C@H](NC(=O)c1cnc(-n2cc(C)cn2)nc1O)c1ccccc1 [Example 133, 4-hydroxy-2-(4-methyl-1H-pyrazol-1-yl)-N-[(1S)-1-phenylpropyl]pyrimidine-5-carboxamide]",≤ 10
9,"O=C(NC(c1ccccc1)c1ccccc1)c1cnc(-n2cncn2)nc1O [Example 46, N-(diphenylmethyl)-4-hydroxy-2-(1H-1,2,4-triazol-1-yl)pyrimidine-5-carboxamide]",100 to 1000
10,"Cc1nc(-c2ncc(C(=O)NCc3ccc(Cl)cc3Cl)c(O)n2)cs1 [Example 37, N-(2,4-dichlorobenzyl)-4-hydroxy-2-(2-methyl-1,3-thiazol-4-yl)pyrimidine-5-carboxamide]",10 to 100
11,"O=C(NC1(c2ccccc2)CCCCC1)c1cnc(-c2cccnn2)nc1O [Example 27, 4-hydroxy-N-(1-phenylcyclohexyl)-2-pyridazin-3-ylpyrimidine-5-carboxamide]",≤ 10
12,"Cc1nc(-c2ncc(C(=O)NCc3cccc(-c4ccccc4)c3)c(O)n2)cs1 [Example 42, N-(biphenyl-3-ylmethyl)-4-hydroxy-2-(2-methyl-1,3-thiazol-4-yl)pyrimidine-5-carboxamide]",10 to 100
13,"O=C(NCc1ccc(Br)cc1)c1cnc(-n2cccn2)nc1O [Example 9, N-(4-bromobenzyl)-4-hydroxy-2-(1H-pyrazol-1-yl)pyrimidine-5-carboxamide]",≤ 10
14,"COc1ccc(C(NC(=O)c2cnc(-c3ccccn3)nc2O)c2ccc(OC)cc2)cc1 [Example 14, N-[bis(4-methoxyphenyl)methyl]-4-hydroxy-2-pyridin-2-ylpyrimidine-5-carboxamide]",≤ 10
15,"CCC(CC)(NC(=O)c1cnc(-n2cccn2)nc1O)c1ccccc1 [Example 98, N-(1-ethyl-1-phenylpropyl)-4-hydroxy-2-(1H-pyrazol-1-yl)pyrimidine-5-carboxamide]",≤ 10
16,"O=C(NCc1nc2ccccc2s1)c1cnc(-n2cccn2)nc1O [Example 55, N-(1,3-benzothiazol-2-ylmethyl)-4-hydroxy-2-(1H-pyrazol-1-yl)pyrimidine-5-carboxamide]",≤ 10
17,"COc1ccc(C(NC(=O)c2cnc(-c3cccnn3)nc2O)c2ccc(C#N)nc2)cc1 (stereo not shown) [Example 112, N-[(6-cyanopyridin-3-yl)(4-methoxyphenyl)methyl]-4-hydroxy-2-pyridazin-3-ylpyrimidine-5-carboxamide]",≤ 10
18,O=C(NCc1ccc(C(F)(F)F)nc1)c1cnc(-n2cccn2)nc1O [Example 10],10 to 100
19,"O=C(NCc1ccc(C(F)(F)F)cc1)c1cnc(-n2cccn2)nc1O [Example 54, 4-Hydroxy-2-(1H-pyrazol-1-yl)-N-[4-(trifluoromethyl)benzyl]pynmidine-5-carboxamide]",≤ 10
20,"O=C(c1ccccc1)c1ccc(CNC(=O)c2cnc(-n3cccn3)nc2O)cc1 [Example 95, N-(4-benzoylbenzyl)-4-hydroxy-2-(1H-pyrazol-1-yl)pyrimidine-5-carboxamide]",≤ 10
21,"C[C@H](NC(=O)c1cnc(-c2cccnn2)nc1O)c1ccc(Br)cc1 [Example 25, N-[(1S)-1-(4-bromophenyl)ethyl]-4-hydroxy-2-pyridazin-3-ylpyrimidine-5-carboxamide]",≤ 10
22,"Cc1ccccc1Oc1ccc(CNC(=O)c2cnc(-n3cccn3)nc2O)cc1 [Example 100, 4-hydroxy-N-[4-(2-methylphenoxy)benzyl]-2-(1H-pyrazol-1-yl)pyrimidine-5-carboxamide]",≤ 10

# Continued, values first:
row,IC50 [nM],SMILES
1,≤ 10,"COc1ccc(C(NC(=O)c2cnc(-c3cccnn3)nc2O)c2ccc(OC)nc2)cn1 [Example 192, N-[bis(6-methoxypyridin-3-yl)methyl]-4-hydroxy-2-(pyridazin-3-yl)pyrimidine-5-carboxamide]"
2,≤ 10,"COc1ccc(CC(NC(=O)c2cnc(-c3cccnn3)nc2O)c2ccc(C#N)cc2)cc1 (single isomer, unassigned) [Example 161, N-[1-(4-cyanophenyl)-2-(4-methoxyphenyl)ethyl]-4-hydroxy-2-(pyridazin-3-yl)pyrimidine-5-carboxamide]"
3,≤ 10,"COc1ccc(C(NC(=O)c2cnc(-c3cccnn3)nc2O)c2ccc3c(c2)CCO3)cc1 (single isomer, unassigned) [Example 164, N-[2,3-dihydro-1-benzofuran-5-yl(4-methoxyphenyl)methyl]-4-hydroxy-2-(pyridazin-3-yl)pyrimidine-5-carboxamide]"
4,≤ 10,"COc1ccc(C(NC(=O)c2cnc(-c3cccnn3)nc2O)c2nc(C)cs2)cc1 (single isomer, unassigned) [Example 144, 4-hydroxy-N-[(4-methoxyphenyl)(4-methyl-1,3-thiazol-2-yl)methyl]-2-(pyridazin-3-yl)pyrimidine-5-carboxamide]"
5,≤ 10,"CCCC(NC(=O)c1cnc(-n2cccn2)nc1O)c1ccc(-c2ccccc2)cc1 (stereo not shown) [Example 165, N-[1-(biphenyl-4-yl)butyl]-4-hydroxy-2-(1H-pyrazol-1-yl)pyrimidine-5-carboxamide]"
6,≤ 10,"C[C@H](NC(=O)c1cnc(-c2cccnn2)nc1O)c1ccc(-c2ccc(F)nc2)cc1 [Example 186, N-{(1S)-1-[4-(6-fluoropyridin-3-yl)phenyl]ethyl}-4-hydroxy-2-pyridazin-3-ylpyrimidine-5-carboxamide trifluoroacetate (salt)]"
7,≤ 10,"COc1ccc(C(NC(=O)c2cnc(-c3cccnn3)nc2O)c2ccc(OC)nc2)cc1 (single isomer, unassigned) [Example 191]"
8,≤ 10,"COc1ccc(C(NC(=O)c2cnc(-c3cccnn3)nc2O)c2ccc(C)nc2)cc1 (single isomer, unassigned) [Example 146, 4-hydroxy-N-[(4-methoxyphenyl)(6-methylpyridin-3-yl)methyl]-2-(pyridazin-3-yl)pyrimidine-5-carboxamide]"
9,≤ 10,"O=C(NC(c1ccccc1)c1ccc(C(F)(F)F)nc1)c1cnc(-n2cccn2)nc1O (single isomer, unassigned) [Example 143, 4-hydroxy-N-{phenyl[6-(trifluoromethyl)pyridin-3-yl]methyl}-2-(1H-pyrazol-1-yl)pyrimidine-5-carboxamide]"
10,≤ 10,"COc1ccc(C(NC(=O)c2cnc(-n3cccn3)nc2O)c2ccc(SC)cc2)cc1 (stereo not shown) [Example 168, 4-hydroxy-N-{(4-methoxyphenyl)[4-(methylsulfanyl)phenyl]methyl}-2-(1H-pyrazol-1-yl)pyrimidine-5-carboxamide]"
11,≤ 10,"C[C@H](NC(=O)c1cnc(-c2cccnn2)nc1O)c1ccc(-c2cccnc2)cc1 [Example 187, 4-hydroxy-2-pyridazin-3-yl-N-[(1S)-1-(4-pyridin-3-ylphenyl)ethyl]pyrimidine-5-carboxamide trifluoroacetate (salt)]"
12,≤ 10,"COc1ccc(C(NC(=O)c2cnc(-c3cccnn3)nc2O)c2ccc3ccccc3n2)cc1 (stereo not shown) [Example 171, 4-hydroxy-N-[(4-methoxyphenyl)(quinolin-2-yl)methyl]-2-(pyridazin-3-yl)pyrimidine-5-carboxamide]"
13,≤ 10,O=C(N[C@H](c1ccccc1)[C@@H](O)c1ccccc1)c1cnc(-c2cccnn2)nc1O [Example 138]
14,≤ 10,"COCc1ccc(C(NC(=O)c2cnc(-c3cccnn3)nc2O)c2ccc(OC)cc2)cc1 (single isomer, unassigned) [Example 183, 4-Hydroxy-N-[[4-(methoxymethyl)phenyl](4-methoxyphenyl)methyl]-2-pyridazin-3-ylpyrimidine-5-carboxamide]"
15,≤ 10,"COCc1ccc(C(NC(=O)c2cnc(-c3cccnn3)nc2O)c2ccc(OC)cc2)cc1 (single isomer, unassigned) [Example 182, 4-Hydroxy-N-[[4-(methoxymethyl)phenyl](4-methoxyphenyl)methyl]-2-pyridazin-3-ylpyrimidine-5-carboxamide]"
